According to patent publication US12440519B2 (Iowa State University Research Foundation, Inc., priority 2017, dated 2025):

How the values were obtained:
[1] = mice, L-DOPA source in feed
Experimental: Feed was prepared in one of two ways depending on the source of L-DOPA. […] For purified L-DOPA, 1 g of purified L-DOPA is mixed in a 1:200 ratio with the feed powder. The mixed feed is then added to additional feed powder in a 1:4 ratio, creating a 1 mg/g L-DOPA feed.
For the 12-day trial 10 mice were placed in each group of control mice given feed plus the PBS gavage, a probiotic supplemented diet of normal feed plus a 1×10^9 CFU gavage of ML1082, and a synbiotic diet of feed with 1 mg/g supplemented pure L-DOPA and a 1×10^9 CFU gavage of ML1082. Behavioral testing was performed on days 11 and 12 (see below), followed by sacrifice and sample collection for UHPLC-ECD as above.

[2] = system: L-DOPA decarboxylase; assay: Carbidopa inhibition of dopamine production by ML1082 in sSIM; type: cell-based, E. faecium; details: strain ML1082, sSIM
Experimental: A L-DOPA rich diet or a commonly prescribed 100 mg dose of L-DOPA would yield a concentration of about 1.0×10^−3 M concentration in sSIM. It follows then that a tablet that has 1:10 Carbidopa:L-DOPA tablet would likely result in a Carbidopa concentration of approximately 1/10th that on the order of 1.0×10^−4M (−log [Carbidopa]=4).
The IC50 was similar to the L-DOPA concentration of 1.26×10^−3 M, a finding that may indicate a competitive inhibitory mechanism for the bacterial enzyme.

[3] = system: E. coli
Text: Although this is a well-established finding, the chemical-mechanistic effects of catecholamines on prokaryotes are relatively poorly understood. Neurochemical exposure has the potential not only to alter growth profiles and behavior, but it also appears to trigger the production of unique chemicals.

[4] = system: circular muscle; details: read-out: EC50, induced contractions; cited from earlier work
[5] = system: longitudinal muscle; details: read-out: EC50, relaxation; cited from earlier work
[6] = system: distal colon; details: read-out: EC50 of maximal response; cited from earlier work

N[C@@H](Cc1ccc(O)c(O)c1)C(=O)O [L-DOPA, L-3,4-dihydroxyphenylalanine]
uptake of L-DOPA into the body before conversion by the probiotic [1]: absorbed into the body before it could interact with the probiotics

C[C@@](Cc1ccc(O)c(O)c1)(NN)C(=O)O [Carbidopa]
inhibition of dopamine production [2]: dose-dependent inhibition

NCCc1ccc(O)c(O)c1 [dopamine]
production of the dopamine-induced compound by E. coli ([3]; LB supplied with dopamine, FIG. 6F): little if any of this compound
chemical response of E. coli ([3]; sSIM spiked with 0.001 M dopamine): novel chemical response
EC50 [4]: 6.3 µM
EC50 [5]: 29 µM
EC50 [6]: 20 µM
